ChEMBL document CHEMBL5614394, “Novel pleuromutilin derivatives conjugated with phenyl-sulfide and boron-containing moieties as potent antibacterial agents against antibiotic-resistant bacteria” (Eur J Med Chem, 2024)
Values after ≈ are worked out from the molar mass of the structure shown. Active and inactive are the calls of the source. No cut-off for these calls is given here.

Legend:
Staphylococcus aureus [1] = assay: Antibacterial activity against methicillin-resistant Staphylococcus aureus J1 harboring (lsa(E)+) genotype assessed as inhibition of visible growth of bacteria incubated for 24 hrs by CLSI protocol based broth-dilution method; format: functional
Enterococcus faecium [2] = assay: Antibacterial activity against pleuromutilin-resistant Enterococcus faecium 18FJZ1-1 harboring (lsa(E)+) genotype assessed as inhibition of visible growth of bacteria incubated for 24 hrs by CLSI protocol based broth-dilution method; format: functional
Staphylococcus simulans = assay: Antibacterial activity against pleuromutilin-resistant Staphylococcus simulans isolate 55-1 harboring cfr+ genotype assessed as inhibition of visible growth of bacteria incubated for 24 hrs by CLSI protocol based broth-dilution method; format: functional
Enterococcus faecium [3] = assay: Antibacterial activity against pleuromutilin-resistant Enterococcus faecium 18SC29-2 harboring (lsa(E)-) genotype assessed as inhibition of visible growth of bacteria incubated for 24 hrs by CLSI protocol based broth-dilution method; format: functional
Staphylococcus aureus [4] = assay: Antibacterial activity against Staphylococcus aureus USA 300 assessed as inhibition of visible growth of bacteria incubated for 24 hrs by CLSI protocol based broth-dilution method; format: functional
[5] = test system: Staphylococcus epidermidis; assay: Antibacterial activity against methicillin-sensitive Staphylococcus epidermidis isolate 20-15 assessed as inhibition of visible growth of bacteria incubated for 24 hrs by CLSI protocol based broth-dilution method; format: functional
Staphylococcus aureus [6] = assay: Antibacterial activity against methicillin resistant Staphylococcus aureus USA 300 infected in peritonitis sepsis CD-1 mouse model assessed as mouse survival rate at 40 mg/kg, iv administered as single dose and measured after 7 days relative to control; format: functional; details: USA 300, 168 h, time 7 day
Staphylococcus aureus [7] = assay: Antibacterial activity against methicillin-resistant Staphylococcus aureus USA 300 assessed as number of colonies with prevalence of spontaneous mutation at 4 times of MIC incubated for 48 hrs by agar dilution assay; format: functional
Streptococcus pneumoniae [8] = assay: Antibacterial activity against penicillin resistant Streptococcus pneumoniae isolate 20-1 assessed as inhibition of visible growth of bacteria incubated for 24 hrs by CLSI protocol based broth-dilution method; format: functional
HEK293 = assay: Cytotoxicity against HEK293 cells incubated for 48 hrs by MTT assay; format: toxicity, cell-based; details: human, hek293, 48 h
[9] = test system: Staphylococcus epidermidis; assay: Antibacterial activity against Staphylococcus epidermidis ATCC 12228 assessed as inhibition of visible growth of bacteria incubated for 24 hrs by CLSI protocol based broth-dilution method; format: functional
HUVEC = assay: Cytotoxicity against HUVEC cells incubated for 48 hrs by MTT assay; format: toxicity, cell-based; details: human
Staphylococcus aureus [10] = assay: Antibacterial activity against Staphylococcus aureus ATCC 43300 assessed as inhibition of visible growth of bacteria incubated for 24 hrs by CLSI protocol based broth-dilution method; format: functional
Streptococcus pneumoniae [11] = assay: Antibacterial activity against penicillin resistant Streptococcus pneumoniae isolate 20-4 assessed as inhibition of visible growth of bacteria incubated for 24 hrs by CLSI protocol based broth-dilution method; format: functional
[12] = Acute toxicity in male CD-1 mouse assessed as effect on survival at 40 mg/kg, iv administered as single dose for 7 days; format: organism-based; details: in vivo, 168 h, time 7 day
Streptococcus pneumoniae [13] = assay: Antibacterial activity against penicillin sensitive Streptococcus pneumoniae isolate 20-1 assessed as inhibition of visible growth of bacteria incubated for 24 hrs by CLSI protocol based broth-dilution method; format: functional
Staphylococcus aureus [14] = assay: Antibacterial activity against Staphylococcus aureus ATCC 33591 assessed as inhibition of visible growth of bacteria incubated for 24 hrs by CLSI protocol based broth-dilution method; format: functional
Staphylococcus aureus [15] = assay: Antibacterial activity against Staphylococcus aureus ATCC 25923 assessed as inhibition of visible growth of bacteria incubated for 24 hrs by CLSI protocol based broth-dilution method; format: functional
Streptococcus pneumoniae [16] = assay: Antibacterial activity against penicillin resistant Streptococcus pneumoniae isolate 20-2 assessed as inhibition of visible growth of bacteria incubated for 24 hrs by CLSI protocol based broth-dilution method; format: functional
Acinetobacter baumannii = assay: Antibacterial activity against Acinetobacter baumannii ATCC 19606 assessed as inhibition of visible growth of bacteria incubated for 24 hrs by CLSI protocol based broth-dilution method; format: functional
[17] = Stability in rat liver microsomes assessed as drug metabolism at 1 uM measured within 1 hrs in presence of NADPH by LC-MS analysis; format: ADME, Microsome; details: read-out: Drug metabolism
Staphylococcus aureus [18] = assay: Antibacterial activity against Staphylococcus aureus ATCC 700699 assessed as inhibition of visible growth of bacteria incubated for 24 hrs by CLSI protocol based broth-dilution method; format: functional
Staphylococcus aureus [19] = assay: Antibacterial activity against methicillin resistant Staphylococcus aureus USA 300 infected in peritonitis sepsis CD-1 mouse model assessed as mouse survival rate at 40 mg/kg, iv administered as double dose with 6 hrs interval and measured after 7 days relative to control; format: functional; details: USA 300, 168 h, time 7 day
[20] = Stability in human liver microsomes assessed as drug metabolism at 1 uM measured within 1 hrs in presence of NADPH by LC-MS analysis; format: ADME, Microsome; details: read-out: Drug metabolism
Enterococcus faecalis [21] = assay: Antibacterial activity against Enterococcus faecalis ATCC 29212 assessed as inhibition of visible growth of bacteria incubated for 24 hrs by CLSI protocol based broth-dilution method; format: functional
Streptococcus pneumoniae [22] = assay: Antibacterial activity against penicillin resistant Streptococcus pneumoniae isolate 20-3 assessed as inhibition of visible growth of bacteria incubated for 24 hrs by CLSI protocol based broth-dilution method; format: functional
Enterococcus faecalis [23] = assay: Antibacterial activity against Enterococcus faecalis HB 24-4 assessed as inhibition of visible growth of bacteria incubated for 24 hrs by CLSI protocol based broth-dilution method; format: functional
Staphylococcus aureus [24] = assay: Bactericidal activity against methicillin-resistant Staphylococcus aureus USA 300 assessed as inhibition of bacterial growth at 8 times of MIC by time kill kinetics assay; format: functional, organism-based; details: time <= 24.0 hrs, TDE = time-dependent effect
Staphylococcus aureus [25] = assay: Antibacterial activity against methicilin-resistant Staphylococcus aureus isolate 15-2 assessed as inhibition of visible growth of bacteria incubated for 24 hrs by CLSI protocol based broth-dilution method; format: functional
Staphylococcus aureus [26] = assay: Antibacterial activity against methicillin-resistant Staphylococcus aureus USA 300 assessed as inhibition of bacterial growth at 1 times of MIC measured upto 24 hrs by time-kill kinetics assay; format: functional, organism-based
[27] = Stability in mouse liver microsomes assessed as drug metabolism at 1 uM measured within 1 hrs in presence of NADPH by LC-MS analysis; format: ADME, Microsome; details: read-out: Drug metabolism
Staphylococcus aureus [28] = assay: Antibacterial activity against Staphylococcus aureus ATCC 700788 assessed as inhibition of visible growth of bacteria incubated for 24 hrs by CLSI protocol based broth-dilution method; format: functional
Staphylococcus aureus [29] = assay: Antibacterial activity against Staphylococcus aureus ATCC 29213 assessed as inhibition of visible growth of bacteria incubated for 24 hrs by CLSI protocol based broth-dilution method; format: functional
Escherichia coli = assay: Antibacterial activity against Escherichia coli ATCC 25922 assessed as inhibition of visible growth of bacteria incubated for 24 hrs by CLSI protocol based broth-dilution method; format: functional
Staphylococcus aureus [30] = assay: Antibacterial activity against methicillin-resistant Staphylococcus aureus USA 300 assessed as number of colonies with prevalence of spontaneous mutation at 8 times of MIC incubated for 48 hrs by agar dilution assay; format: functional

With `C=C[C@]1(C)C[C@@H](OC(=O)CS[C@@H]2C[C@H]3CC[C@@H](C2)N3C)[C@]2(C)[C@H](C)CC[C@]3(CCC(=O)[C@H]32)[C@@H](C)[C@@H]1O` [RETAPAMULIN] the MIC (Staphylococcus aureus [1]) was over 32 µg/mL, the MIC (Enterococcus faecium [2]) was 32 µg/mL (≈ 61.8 µM) and the MIC (Staphylococcus simulans) was 32 µg/mL (≈ 61.8 µM). For the same compound, the MIC (Enterococcus faecium [3]) was 0.125 µg/mL (≈ 0.241 µM).

With `C=C[C@]1(C)C[C@@H](OC(=O)CSc2cccc(NC(=O)c3ccc4c(c3)B(O)OC4)c2)[C@]2(C)[C@H](C)CC[C@]3(CCC(=O)[C@H]32)[C@@H](C)[C@@H]1O` the MIC (Staphylococcus aureus [4]) was at most 0.03 µg/mL, the MIC [5] was at most 0.03 µg/mL and the survival at 40 mg/kg (Staphylococcus aureus [6]) was 17%. The Activity (Staphylococcus aureus [7]) was <4.7 10^-11No_unit, the MIC (Streptococcus pneumoniae [8]) was 0.06 µg/mL (≈ 0.0929 µM) and the Activity (HEK293) was “Non-Toxic”. For the same compound, the MIC (Staphylococcus aureus [1]) was 4 µg/mL (≈ 6.2 µM), the MIC [9] was 0.016 µg/mL (≈ 0.0248 µM) and the Activity (HUVEC) was “Non-Toxic”. The MIC (Staphylococcus aureus [10]) was at most 0.03 µg/mL, the MIC (Streptococcus pneumoniae [11]) was 0.06 µg/mL (≈ 0.0929 µM) and the Activity [12] was “Non-Toxic”. The MIC (Streptococcus pneumoniae [13]) was 0.06 µg/mL (≈ 0.0929 µM), the MIC (Staphylococcus aureus [14]) was at most 0.03 µg/mL and the MIC (Staphylococcus aureus [15]) was at most 0.03 µg/mL. For the same compound, the MIC (Streptococcus pneumoniae [16]) was 0.06 µg/mL (≈ 0.0929 µM), the MIC (Acinetobacter baumannii) was over 64 µg/mL and the metabolised at 1 h, 1 µM [17] was 52.7%. For the same compound, the MIC (Staphylococcus aureus [18]) was at most 0.03 µg/mL, the survival at 40 mg/kg (Staphylococcus aureus [19]) was 50% and the metabolised at 1 h, 1 µM [20] was 51.1%. It also gave an MIC (Enterococcus faecium [2]) of 2 µg/mL (≈ 3.1 µM), an MIC (Staphylococcus simulans) of 1 µg/mL (≈ 1.55 µM) and an MIC (Enterococcus faecalis [21]) of 1 µg/mL (≈ 1.55 µM). For the same compound, the MIC (Streptococcus pneumoniae [22]) was at most 0.03 µg/mL, the MIC (Enterococcus faecalis [23]) was 0.25 µg/mL (≈ 0.387 µM) and the Activity (Staphylococcus aureus [24]) was “Tde”. For the same compound, the MIC (Staphylococcus aureus [25]) was at most 0.03 µg/mL, the Activity (Staphylococcus aureus [26]) was “Active” and the metabolised at 1 h, 1 µM [27] was 67.2%. The MIC (Staphylococcus aureus [28]) was at most 0.03 µg/mL, the MIC (Staphylococcus aureus [29]) was at most 0.016 µg/mL and the MIC (Escherichia coli) was 32 µg/mL (≈ 49.6 µM). For the same compound, the MIC (Enterococcus faecium [3]) was at most 0.03 µg/mL and the Activity (Staphylococcus aureus [30]) was <4.7 10^-11No_unit.

Compound `C=C[C@]1(C)C[C@@H](OC(=O)CSCCN(CC)CC)[C@]2(C)[C@H](C)CC[C@]3(CCC(=O)[C@H]32)[C@@H](C)[C@@H]1O` [TIAMULIN] has an MIC (Staphylococcus aureus [1]) of over 32 µg/mL, an MIC (Enterococcus faecium [2]) of over 32 µg/mL and an MIC (Staphylococcus simulans) of over 32 µg/mL. For the same compound, the MIC (Enterococcus faecium [3]) was 2 µg/mL (≈ 4.05 µM).
